Source: PubChem BioAssay (NCI)
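Method: 48-hour compound exposure of cells in 96-well plates, five concentrations, linear interpolation of endpoints. GI50: concentration for 50% inhibition of growth. TGI: concentration producing complete growth inhibition.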

What was measured:
Assay in all cases: inhibition of tumour cell growth, NCI panel, 48 h
786-0 renal = system: 786-0 renal
A498 renal = system: A498 renal
A549 NSCLC = system: A549 NSCLC
ACHN renal = system: ACHN renal
BT-549 breast = system: BT-549 breast
CAKI-1 renal = system: CAKI-1 renal
CCRF-CEM leukemia = system: CCRF-CEM leukemia
COLO 205 colon = system: COLO 205 colon
DU-145 prostate = system: DU-145 prostate
EKVX NSCLC = system: EKVX NSCLC
HCC-2998 colon = system: HCC-2998 colon
HCT-116 colon = system: HCT-116 colon
HCT-15 colon = system: HCT-15 colon
HL-60(TB) leukemia = system: HL-60(TB) leukemia
HOP-62 NSCLC = system: HOP-62 NSCLC
HOP-92 NSCLC = system: HOP-92 NSCLC
HS 578T breast = system: HS 578T breast
HT29 colon = system: HT29 colon
IGROV1 ovarian = system: IGROV1 ovarian
K-562 leukemia = system: K-562 leukemia
KM12 colon = system: KM12 colon
LOX IMVI melanoma = system: LOX IMVI melanoma
M14 melanoma = system: M14 melanoma
MALME-3M melanoma = system: MALME-3M melanoma
MCF7 breast = system: MCF7 breast
MDA-MB-231 breast = system: MDA-MB-231 breast
MDA-MB-435 = system: MDA-MB-435
MDA-MB-468 breast = system: MDA-MB-468 breast
MOLT-4 leukemia = system: MOLT-4 leukemia
NCI-H226 lung = system: NCI-H226 lung
NCI-H23 lung = system: NCI-H23 lung
NCI-H460 lung = system: NCI-H460 lung
NCI-H522 lung = system: NCI-H522 lung
NCI/ADR-RES ovarian = system: NCI/ADR-RES ovarian
OVCAR-3 ovarian = system: OVCAR-3 ovarian
OVCAR-4 ovarian = system: OVCAR-4 ovarian
OVCAR-5 ovarian = system: OVCAR-5 ovarian
OVCAR-8 ovarian = system: OVCAR-8 ovarian
PC-3 prostate = system: PC-3 prostate
RPMI-8226 leukemia = system: RPMI-8226 leukemia
RXF 393 renal = system: RXF 393 renal
SF-268 CNS = system: SF-268 CNS
SF-295 CNS = system: SF-295 CNS
SF-539 CNS = system: SF-539 CNS
SK-MEL-2 melanoma = system: SK-MEL-2 melanoma
SK-MEL-28 melanoma = system: SK-MEL-28 melanoma
SK-MEL-5 melanoma = system: SK-MEL-5 melanoma
SK-OV-3 ovarian = system: SK-OV-3 ovarian
SN12C renal = system: SN12C renal
SNB-19 CNS = system: SNB-19 CNS
SNB-75 CNS = system: SNB-75 CNS
SR leukemia = system: SR leukemia
SW-620 colon = system: SW-620 colon
T-47D breast = system: T-47D breast
TK-10 renal = system: TK-10 renal
U251 CNS = system: U251 CNS
UACC-257 melanoma = system: UACC-257 melanoma
UACC-62 melanoma = system: UACC-62 melanoma
UO-31 renal = system: UO-31 renal

Compound: COc1cc(Nc2nc(O)c(/C=C3\C=Nc4ccccc43)s2)cc(OC)c1OC
- GI50 (786-0 renal): 2.72 µM
- TGI (786-0 renal): 11.9 µM
- GI50 (A498 renal): 10.2 µM
- TGI (A498 renal): 24.6 µM
- GI50 (A549 NSCLC): 2.84 µM
- TGI (A549 NSCLC): 16.5 µM
- GI50 (ACHN renal): 3.2 µM
- TGI (ACHN renal): 12 µM
- GI50 (BT-549 breast): 0.81 µM
- TGI (BT-549 breast): 10.7 µM
- GI50 (CAKI-1 renal): 0.84 µM
- TGI (CAKI-1 renal): 10.3 µM
- GI50 (CCRF-CEM leukemia): 2.09 µM
- TGI (CCRF-CEM leukemia): > 100 µM
- GI50 (COLO 205 colon): 3.14 µM
- TGI (COLO 205 colon): 16.4 µM
- GI50 (DU-145 prostate): 4.63 µM
- TGI (DU-145 prostate): 17.2 µM
- GI50 (EKVX NSCLC): 8.02 µM
- TGI (EKVX NSCLC): 22.2 µM
- GI50 (HCC-2998 colon): 6.36 µM
- TGI (HCC-2998 colon): 20.7 µM
- GI50 (HCT-116 colon): 1.1 µM
- TGI (HCT-116 colon): 10.2 µM
- GI50 (HCT-15 colon): 1.79 µM
- TGI (HCT-15 colon): 12.4 µM
- GI50 (HL-60(TB) leukemia): 0.854 µM
- TGI (HL-60(TB) leukemia): 11.1 µM
- GI50 (HOP-62 NSCLC): 2.69 µM
- TGI (HOP-62 NSCLC): 15.7 µM
- GI50 (HOP-92 NSCLC): 1.98 µM
- TGI (HOP-92 NSCLC): 6.38 µM
- GI50 (HS 578T breast): 2.33 µM
- TGI (HS 578T breast): 11.9 µM
- GI50 (HT29 colon): 0.923 µM
- TGI (HT29 colon): 10.1 µM
- GI50 (IGROV1 ovarian): 4.91 µM
- TGI (IGROV1 ovarian): 21.6 µM
- GI50 (K-562 leukemia): 0.526 µM
- TGI (K-562 leukemia): 31.1 µM
- GI50 (KM12 colon): 0.977 µM
- TGI (KM12 colon): 16.8 µM
- GI50 (LOX IMVI melanoma): 2.82 µM
- TGI (LOX IMVI melanoma): 13.9 µM
- GI50 (M14 melanoma): 2.02 µM
- TGI (M14 melanoma): 15.9 µM
- GI50 (MALME-3M melanoma): 2.01 µM
- TGI (MALME-3M melanoma): 15.2 µM
- GI50 (MCF7 breast): 1.79 µM
- TGI (MCF7 breast): 11.9 µM
- GI50 (MDA-MB-231 breast): 4.77 µM
- TGI (MDA-MB-231 breast): 18.8 µM
- GI50 (MDA-MB-435): 0.28 µM
- TGI (MDA-MB-435): 0.94 µM
- GI50 (MDA-MB-468 breast): 0.657 µM
- TGI (MDA-MB-468 breast): 6.23 µM
- GI50 (MOLT-4 leukemia): 2.63 µM
- TGI (MOLT-4 leukemia): 26 µM
- GI50 (NCI-H226 lung): 3.18 µM
- TGI (NCI-H226 lung): 17.4 µM
- GI50 (NCI-H23 lung): 5.33 µM
- TGI (NCI-H23 lung): 21.1 µM
- GI50 (NCI-H460 lung): 2.1 µM
- TGI (NCI-H460 lung): 14.3 µM
- GI50 (NCI-H522 lung): 0.403 µM
- TGI (NCI-H522 lung): 5.56 µM
- GI50 (NCI/ADR-RES ovarian): 6.24 µM
- TGI (NCI/ADR-RES ovarian): 24.2 µM
- GI50 (OVCAR-3 ovarian): 0.517 µM
- TGI (OVCAR-3 ovarian): 5.32 µM
- GI50 (OVCAR-4 ovarian): 2.88 µM
- TGI (OVCAR-4 ovarian): 10.6 µM
- GI50 (OVCAR-5 ovarian): 4.58 µM
- TGI (OVCAR-5 ovarian): 17.7 µM
- GI50 (OVCAR-8 ovarian): 10.6 µM
- TGI (OVCAR-8 ovarian): 27.2 µM
- GI50 (PC-3 prostate): 2.59 µM
- TGI (PC-3 prostate): 22.6 µM
- GI50 (RPMI-8226 leukemia): 5.73 µM
- TGI (RPMI-8226 leukemia): > 100 µM
- GI50 (RXF 393 renal): 1 µM
- TGI (RXF 393 renal): 5.8 µM
- GI50 (SF-268 CNS): 3.56 µM
- TGI (SF-268 CNS): 20 µM
- GI50 (SF-295 CNS): 2.27 µM
- TGI (SF-295 CNS): 13.4 µM
- GI50 (SF-539 CNS): 2.49 µM
- TGI (SF-539 CNS): 9.95 µM
- GI50 (SK-MEL-2 melanoma): 1.45 µM
- TGI (SK-MEL-2 melanoma): 12.2 µM
- GI50 (SK-MEL-28 melanoma): 6.07 µM
- TGI (SK-MEL-28 melanoma): 21 µM
- GI50 (SK-MEL-5 melanoma): 2.46 µM
- TGI (SK-MEL-5 melanoma): 14.1 µM
- GI50 (SK-OV-3 ovarian): 2.56 µM
- TGI (SK-OV-3 ovarian): 10.3 µM
- GI50 (SN12C renal): 3.85 µM
- TGI (SN12C renal): 15.1 µM
- GI50 (SNB-19 CNS): 6.6 µM
- TGI (SNB-19 CNS): 21.2 µM
- GI50 (SNB-75 CNS): 1.24 µM
- TGI (SNB-75 CNS): 3.63 µM
- GI50 (SR leukemia): 0.394 µM
- TGI (SR leukemia): 29.9 µM
- GI50 (SW-620 colon): 3.1 µM
- TGI (SW-620 colon): 21.8 µM
- GI50 (T-47D breast): 3.58 µM
- TGI (T-47D breast): 19.7 µM
- GI50 (TK-10 renal): 8.56 µM
- TGI (TK-10 renal): 22.8 µM
- GI50 (U251 CNS): 3.27 µM
- TGI (U251 CNS): 15.7 µM
- GI50 (UACC-257 melanoma): 5.18 µM
- TGI (UACC-257 melanoma): 21.1 µM
- GI50 (UACC-62 melanoma): 4.75 µM
- TGI (UACC-62 melanoma): 19.7 µM
- GI50 (UO-31 renal): 3.43 µM
- TGI (UO-31 renal): 13.7 µM
